Experimental data reported in patent publication US11203613B2, “Peptidomimetic proteasome inhibitors” (CORNELL UNIVERSITY, priority 2017, dated 2021).
“And” between values parts separate entries of the source, which are not always exact repeats. Identical values can stand only once. Like-named read-outs stand apart in the source and are kept apart here.

Columns and labels:
Mtb20SOG = Mtb20SOG (Mycobacterium tuberculosis, UniProt P9WHT9); experiment: biochemical
[1] = target: Human Constitutive (Hu C-20S) β5 Active Subunit (Homo sapiens, UniProt P28074); experiment: IC50 determination, human constitutive 20S proteasome β5c (suc-LLVY-AMC hydrolysis); format: biochemical
[2] = Table 2, several values in a cell are repeat determinations
[3] = Table 2, several values in a cell are repeat determinations, read-out: Hu c-20S IC50

Sequence of Mtb20SOG (P9WHT9 58-291): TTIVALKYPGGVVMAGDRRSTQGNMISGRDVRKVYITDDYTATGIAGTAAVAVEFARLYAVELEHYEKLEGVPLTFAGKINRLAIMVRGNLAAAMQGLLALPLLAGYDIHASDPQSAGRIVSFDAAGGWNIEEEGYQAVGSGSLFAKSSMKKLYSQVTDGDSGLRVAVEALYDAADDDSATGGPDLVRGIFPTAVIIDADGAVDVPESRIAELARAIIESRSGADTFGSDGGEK

Row | Compound | IC50 (Mtb20SOG; [2]) | IC50 [1, 3] | IC50 (Mtb20SOG) | IC50 ([1]; Table 3, IC50 against human constitutive β5 active subunit, read-out: Hu-C20S β5) [nM]
1 | Cc1cc(C(=O)N[C@@H](CC(=O)N2CCCCC2C)C(=O)N(C)[C@@H](C)C(=O)NCc2ccc(F)cc2F)no1 (stereo partly shown) | 10000 nM | 19000 nM |  | 
2 | C[C@H](NC(=O)[C@H](CC(=O)N1CCCC[C@@H]1C)NC(=O)CCc1ccccc1)C(=O)NCc1cccc(NC(=O)OC(C)(C)C)c1 | 24700 nM | 50200 nM |  | 
3 | C[C@H](NC(=O)[C@H](CC(=O)N1CCCC[C@@H]1C)NC(=O)CCc1ccccc1)C(=O)NCc1cccc(N)c1 | 5 nM | 690 nM |  | 
4 | CCC1CCCCN1C(=O)CC(NC(=O)C1CC1c1ccccc1)C(=O)NC(C)c1nc2c(F)cccc2[nH]1 (stereo not shown) |  | 8140 nM | 51 nM | 
5 | Cc1cc(C(=O)NC(CC(=O)N2CCCCC2C)C(=O)NC(C)c2ncc(-c3ccccc3)[nH]2)no1 (mixture of isomers) [CF-503094] |  | 12000 nM and 11000 nM | 471 nM and 726 nM | 
6 | C[C@H](NC(=O)[C@H](CC(=O)N1CCCC[C@@H]1C)NC(=O)C1CC(C)(C)C1)c1nc2c(F)cccc2[nH]1 (single isomer, unassigned) [CF-503465] | 25 nM and 32 nM | 7620 nM and 1920 nM |  | 
7 | C[C@H](NC(=O)[C@H](CC(=O)N1CCC[C@@H]1c1ccccc1)Nc1nc2ccccc2o1)c1ncc(-c2ccccc2F)[nH]1 [CEN-125, (S)-2-(benzo[d]oxazol-2-ylamino)-N—((S)-1-(5-(2-fluorophenyl)-1H-imidazol-2-yl)ethyl)-4-oxo-4-((R)-2-phenylpyrrolidin-1-yl)butanamide] |  |  |  | 20600
8 | Cc1cc(C(=O)N[C@@H](CC(=O)N2CCCC[C@@H]2C)C(=O)N[C@@H](C)c2ncc(-c3ccccc3)[nH]2)no1 [CF-503102] | 717 nM and 440 nM | 14000 nM and 10000 nM |  | 
9 | Cc1cc(C(=O)N[C@@H](CC(=O)N2CCCC[C@@H]2C)C(=O)N[C@@H](C)c2ncc(-c3ccccc3F)[nH]2)no1 [CF-503103] |  | > 15000 nM | 160 nM and 306 nM | 
10 | Cc1cc(C(=O)N[C@@H](CC(=O)N2CCCC[C@@H]2C)C(=O)N[C@@H](C)c2ncc(-c3ccc(F)cc3)[nH]2)no1 [CF-503105] |  | > 18000 nM and 19000 nM | 259 nM and 256 nM | 
11 | Cc1cc(C(=O)N[C@@H](CC(=O)N2CCC[C@@H]2c2ccccc2)C(=O)N[C@@H](C)c2ncc(-c3ccccc3F)[nH]2)no1 [CF-503108] |  |  | 13 nM | 
12 | Cc1cc(C(=O)N[C@@H](CC(=O)N2CCCC[C@@H]2C)C(=O)N[C@@H](C)c2ncc(-c3ccc(F)cc3F)[nH]2)no1 [CF-503111] |  | 7200 nM and 5480 nM | 41 nM and 34 nM | 
13 | Cc1cc(C(=O)N[C@@H](CC(=O)N2CCC[C@@H]2c2ccccc2)C(=O)NC(C)c2nc3ccccc3[nH]2)no1 (stereo partly shown) [CF-503127] |  | 7000 nM | 84 nM and 100 nM | 
14 | Cc1cc(C(=O)N[C@@H](CC(=O)N2CCCC[C@@H]2C)C(=O)N[C@@H](C)c2ncc(Cc3ccccc3)[nH]2)no1 [CF-503133] | 266 nM and 231 nM | 5590 nM and 7080 nM |  | 
15 | Cc1cc(C(=O)N[C@@H](CC(=O)N2CCC[C@@H]2c2ccccc2)C(=O)N[C@@H](C)c2ncc(Cc3ccccc3)[nH]2)no1 [CF-503134] |  | 7400 nM and 7600 nM | 90 nM and 57 nM | 
16 | C[C@H](NC(=O)[C@H](CC(=O)N1CCCC[C@@H]1C)NC(=O)CC1CCOCC1)c1ncc(Cc2ccccc2)[nH]1 [CF-503135] | 450 nM and 386 nM | 9120 nM and 13500 nM |  | 
17 | C[C@H](NC(=O)[C@H](CC(=O)N1CCCC[C@@H]1C)NC(=O)CC1CC1)c1ncc(Cc2ccccc2)[nH]1 [CF-503136] | 925 nM | 10400 nM |  | 
18 | C[C@H](NC(=O)[C@H](CC(=O)N1CCC[C@@H]1c1ccccc1)NC(=O)CC1CC1)c1ncc(Cc2ccccc2)[nH]1 [CF-503137] |  | 12600 nM and 10600 nM | 78 nM and 64 nM | 
19 | C[C@H](NC(=O)[C@H](CC(=O)N1CCCC[C@@H]1C)NC(=O)CC1CC1)c1ncc(-c2ccc(F)cc2F)[nH]1 [CF-503138] | 169 nM and 85 nM | 11800 nM and 10500 nM |  | 
20 | C[C@H](NC(=O)[C@H](CC(=O)N1CCCC[C@@H]1C)NC(=O)CC1CCOCC1)c1ncc(-c2ccc(F)cc2F)[nH]1 [CF-503139] |  | 12800 nM and 10300 nM | 89 nM and 148 nM | 
21 | C[C@H](NC(=O)[C@H](CC(=O)N1CCCC[C@@H]1C)NS(=O)(=O)Cc1ccccc1)c1ncc(-c2ccc(F)cc2F)[nH]1 [CF-503140] | 379 nM | 6130 nM |  | 
22 | CC(C)CS(=O)(=O)N[C@@H](CC(=O)N1CCCC[C@@H]1C)C(=O)N[C@@H](C)c1ncc(-c2ccc(F)cc2F)[nH]1 [CF-503141] | 368 nM | 4900 nM |  | 
23 | C[C@H](NC(=O)[C@H](CC(=O)N1CCCC[C@@H]1C)NS(=O)(=O)c1ccccc1)c1ncc(-c2ccc(F)cc2F)[nH]1 [CF-503142] | 650 nM | 8130 nM |  | 
24 | Cc1ccc(S(=O)(=O)N[C@@H](CC(=O)N2CCCC[C@@H]2C)C(=O)N[C@@H](C)c2ncc(-c3ccc(F)cc3F)[nH]2)cc1 [CF-503143] |  | 6470 nM | 494 nM | 
25 | CCS(=O)(=O)N[C@@H](CC(=O)N1CCCC[C@@H]1C)C(=O)N[C@@H](C)c1ncc(-c2ccc(F)cc2F)[nH]1 [CF-503144] | 1900 nM | 28200 nM |  | 
26 | C[C@H](NC(=O)[C@H](CC(=O)N1CCCC[C@@H]1C)NCC(=O)c1ccccc1)c1ncc(-c2ccc(F)cc2F)[nH]1 [CF-503145] | 10000 nM | 15200 nM |  | 
27 | C[C@H](NC(=O)[C@H](CC(=O)N1CCCC[C@@H]1C)NC(=O)C1CCC1)c1ncc(-c2ccc(F)cc2F)[nH]1 [CF-503146] |  | 2410 nM | 163 nM | 
